The target in experiment [1] is T1, Human PD-L1/PD-1 (Homo sapiens, UniProt Q9NZQ7).
T1 construct: made in house; host or cells: HEK293T
Kind of experiment: HTRF PD-1-Ig/PD-L1-His binding assay (human PD-L1). The essentials:
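Steps: truncated PD-1-Ig and PD-L1-His fusions are incubated in dPBS containing 0.1% (w/v) BSA and 0.05% (v/v) Tween-20. Detection antibodies are then added (Eu cryptate anti-Ig at 1 nM final, APC anti-His at 20 nM final), and time-resolved FRET is measured.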
In general terms: TR-FRET usually uses a lanthanide donor and a delayed reading to cut background.

Experiment [2] addresses T2, LK35.2-hPD-L1 cells / PE-labeled PD-1-Ig (Homo sapiens, UniProt Q9NZQ7).
T2 construct: expressed in transfected cells; host or cells: LK35.2 mouse B cell line
Kind of experiment: LK35.2-hPD-L1 cell binding high-content screening assay. The experiment is classed as cell-based. The following applies: cell line of CBA not given (LK35.2-hPD-L1 or 293T-hPD-L1). The gist of the method:
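Mouse LK35.2 B cells stably over-expressing human PD-L1, cultured overnight, treated with compound plus PE-labeled human PD-1-Ig (1 nM final) in RPMI/10% FCS for 1 h at 37 °C. After washing, bound fluorescence quantified by high-content imaging.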

[3] abbreviates: cluster symbol, read-out: HTRF IC50 cluster.
The mark [4] stands for this setting: cluster symbol, read-out: CBA IC50 cluster.

Like-named read-outs stand apart in the source and are kept apart here. Positions of bridges follow the written chain, without caps; N, C: chain ends. Non-standard residues stand in square brackets, D forms with d. Residues, ends and D or L forms follow the SMILES beside them. Bta = N[C@@H](Cc1csc2ccccc12)C(=O)O; Hyp = O=C(O)[C@@H]1C[C@@H](O)CN1; NMeE = CN[C@@H](CCC(=O)O)C(=O)O; NMeD = CN[C@@H](CC(=O)O)C(=O)O; NMeNle = CCCC[C@H](NC)C(=O)O; NMeA = CN[C@@H](C)C(=O)O; Orn = NCCC[C@H](N)C(=O)O; Dab = NCC[C@H](N)C(=O)O; Dap = NC[C@H](N)C(=O)O

T2 sequence (Q9NZQ7 19-290): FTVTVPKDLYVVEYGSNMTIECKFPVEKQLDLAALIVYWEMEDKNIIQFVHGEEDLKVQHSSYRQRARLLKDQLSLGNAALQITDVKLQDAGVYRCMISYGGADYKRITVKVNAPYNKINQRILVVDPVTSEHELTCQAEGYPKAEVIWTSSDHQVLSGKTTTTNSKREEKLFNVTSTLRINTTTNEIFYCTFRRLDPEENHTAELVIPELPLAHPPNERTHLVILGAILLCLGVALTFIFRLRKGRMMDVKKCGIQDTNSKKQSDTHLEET
T1 sequence (Q9NZQ7 with tags, fused parts or gaps): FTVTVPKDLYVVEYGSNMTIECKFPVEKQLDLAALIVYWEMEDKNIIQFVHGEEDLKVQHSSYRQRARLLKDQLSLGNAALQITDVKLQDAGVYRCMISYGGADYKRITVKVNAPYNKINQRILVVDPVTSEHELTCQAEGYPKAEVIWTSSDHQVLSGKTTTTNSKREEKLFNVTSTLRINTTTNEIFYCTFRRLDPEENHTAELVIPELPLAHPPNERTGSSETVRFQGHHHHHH

In the case of `CCCC[C@H]1C(=O)N(C)[C@@H](CCCC)C(=O)N[C@@H](CCCN)C(=O)N[C@H](C(=O)NCC(N)=O)CSCC(=O)N[C@@H](Cc2ccc(O)cc2)C(=O)N(C)[C@@H](C)C(=O)N[C@@H](CC(=O)O)C(=O)N2CCC[C@H]2C(=O)N[C@@H](CN)C(=O)N[C@@H](CCC(N)=O)C(=O)N2C[C@H](O)C[C@H]2C(=O)N[C@@H](Cc2c[nH]c3ccccc23)C(=O)N[C@@H](CCN)C(=O)N[C@@H](Cc2csc3ccccc23)C(=O)N1C` [Example 1182] ({CH2CO}-Y[NMeA]DP[Dap]Q[Hyp]W[Dab][Bta][NMeNle][NMeNle][Orn]CG-NH2; thioether N-14), the IC50 (commonly the midpoint of a concentration-inhibition curve) was 0.385 to 6.74 nM in experiment [1] (setting [3]) and 0.158 to 4.71 nM in experiment [2] (setting [4]).

For `CCCC[C@H]1C(=O)N(C)[C@@H](CCCC)C(=O)N[C@@H](CCCN)C(=O)N[C@H](C(=O)NCC(N)=O)CSCC(=O)N[C@@H](Cc2ccc(O)cc2)C(=O)N(C)[C@@H](C)C(=O)N[C@@H](CC(=O)O)C(=O)N2CCC[C@H]2C(=O)N[C@@H](CN)C(=O)N[C@@H](CCC(=O)O)C(=O)N2C[C@H](O)C[C@H]2C(=O)N[C@@H](Cc2c[nH]c3ccccc23)C(=O)N[C@@H](CCN)C(=O)N[C@@H](Cc2csc3ccccc23)C(=O)N1C` [Example 1183] ({CH2CO}-Y[NMeA]DP[Dap]E[Hyp]W[Dab][Bta][NMeNle][NMeNle][Orn]CG-NH2; thioether N-14), the figures for the IC50 in experiment [1] (setting [3]) and in experiment [2] (setting [4]) were 0.385 to 6.74 nM and 0.158 to 4.71 nM, respectively.

Consider `CCCC[C@H]1C(=O)N(C)[C@@H](CCCC)C(=O)N[C@@H](CCCN)C(=O)N[C@H](C(=O)NCC(N)=O)CSCC(=O)N[C@@H](Cc2ccc(O)cc2)C(=O)N(C)[C@@H](C)C(=O)N[C@@H](CC(=O)O)C(=O)N2CCC[C@H]2C(=O)N[C@@H](CN)C(=O)N[C@@H](CC(=O)O)C(=O)N2C[C@H](O)C[C@H]2C(=O)N[C@@H](Cc2c[nH]c3ccccc23)C(=O)N[C@@H](CCN)C(=O)N[C@@H](Cc2csc3ccccc23)C(=O)N1C` [Example 1184] ({CH2CO}-Y[NMeA]DP[Dap]D[Hyp]W[Dab][Bta][NMeNle][NMeNle][Orn]CG-NH2; thioether N-14), for which the IC50 in experiment [1] (setting [3]) fell in the range of 0.385 to 6.74 nM; in experiment [2] (setting [4]), 0.158 to 4.71 nM.

`CCCC[C@H]1C(=O)N(C)[C@@H](CCCC)C(=O)N[C@@H](CCCN)C(=O)N[C@H](C(=O)NCC(N)=O)CSCC(=O)N[C@@H](Cc2ccc(O)cc2)C(=O)N(C)[C@@H](C)C(=O)N[C@@H](CC(N)=O)C(=O)N2CCC[C@H]2C(=O)N[C@@H](CN)C(=O)N[C@@H](CCC(=O)O)C(=O)N2C[C@H](O)C[C@H]2C(=O)N[C@@H](Cc2c[nH]c3ccccc23)C(=O)N[C@@H](CCN)C(=O)N[C@@H](Cc2csc3ccccc23)C(=O)N1C` [Example 1185] ({CH2CO}-Y[NMeA]NP[Dap]E[Hyp]W[Dab][Bta][NMeNle][NMeNle][Orn]CG-NH2; thioether N-14): the IC50 was 0.385 to 6.74 nM in experiment [1] (setting [3]) and 0.158 to 4.71 nM in experiment [2] (setting [4]).

In the case of `CCCC[C@H]1C(=O)N(C)[C@@H](CCCC)C(=O)N[C@@H](CCCN)C(=O)N[C@H](C(=O)NCC(N)=O)CSCC(=O)N[C@@H](Cc2ccc(O)cc2)C(=O)N(C)[C@@H](C)C(=O)N[C@@H](CC(N)=O)C(=O)N2CCC[C@H]2C(=O)N[C@@H](CN)C(=O)N[C@@H](CC(=O)O)C(=O)N2C[C@H](O)C[C@H]2C(=O)N[C@@H](Cc2c[nH]c3ccccc23)C(=O)N[C@@H](CCN)C(=O)N[C@@H](Cc2csc3ccccc23)C(=O)N1C` [Example 1186] ({CH2CO}-Y[NMeA]NP[Dap]D[Hyp]W[Dab][Bta][NMeNle][NMeNle][Orn]CG-NH2; thioether N-14), the IC50 in experiment [1] (setting [3]) lay within 0.385 to 6.74 nM; in experiment [2] (setting [4]), 0.158 to 4.71 nM.

In the case of `CCCC[C@H]1C(=O)N(C)[C@@H](CCCC)C(=O)N[C@@H](CCCN)C(=O)N[C@H](C(=O)NCC(N)=O)CSCC(=O)N[C@@H](Cc2ccc(O)cc2)C(=O)N2CCC[C@H]2C(=O)N[C@@H](CC(=O)O)C(=O)N2CCC[C@H]2C(=O)N[C@@H](CN)C(=O)N[C@@H](CCC(N)=O)C(=O)N2C[C@H](O)C[C@H]2C(=O)N[C@@H](Cc2c[nH]c3ccccc23)C(=O)N[C@@H](CCN)C(=O)N[C@@H](Cc2csc3ccccc23)C(=O)N1C` [Example 1187] ({CH2CO}-YPDP[Dap]Q[Hyp]W[Dab][Bta][NMeNle][NMeNle][Orn]CG-NH2; thioether N-14), the IC50 in experiment [1] (setting [3]) was in the range of 6.76 to 30.3 nM; in experiment [2] (setting [4]), 4.78 to 72.9 nM.

In the case of `CCCC[C@H]1C(=O)N(C)[C@@H](CCCC)C(=O)N[C@@H](CCCN)C(=O)N[C@H](C(=O)NCC(N)=O)CSCC(=O)N[C@@H](Cc2ccc(O)cc2)C(=O)N2C[C@@H](N)C[C@H]2C(=O)N[C@@H](CC(N)=O)C(=O)N2CCC[C@H]2C(=O)N[C@@H](Cc2cnc[nH]2)C(=O)N[C@@H](CC(C)C)C(=O)N2C[C@H](O)C[C@H]2C(=O)N[C@@H](Cc2c[nH]c3ccccc23)C(=O)N[C@@H](CO)C(=O)N[C@@H](Cc2c[nH]c3ccccc23)C(=O)N1C` [Example 1188], the IC50 is 6.76 to 30.3 nM in experiment [1] (setting [3]) and 4.78 to 72.9 nM in experiment [2] (setting [4]).

`CCCC[C@H]1C(=O)N(C)[C@@H](CCCC)C(=O)N[C@@H](CCCNC(=N)N)C(=O)N[C@H](C(=O)NCC(N)=O)CSCC(=O)N[C@@H](Cc2ccc(O)cc2)C(=O)N(C)[C@@H](CCC(=O)O)C(=O)N[C@@H](CC(N)=O)C(=O)N2CCC[C@H]2C(=O)N[C@@H](Cc2cnc[nH]2)C(=O)N[C@@H](CC(C)C)C(=O)N(C)CC(=O)N[C@@H](Cc2c[nH]c3ccccc23)C(=O)N[C@@H](CO)C(=O)N[C@@H](Cc2c[nH]c3ccccc23)C(=O)N1C` [Example 1189]: the IC50 in experiment [1] (setting [3]) is > 30.5 nM; in experiment [2] (setting [4]) it was > 74.3 nM.

Take `CCCC[C@H]1C(=O)N(C)[C@@H](CCCC)C(=O)N[C@@H](CCCNC(=N)N)C(=O)N[C@H](C(=O)NCC(N)=O)CSCC(=O)N[C@@H](Cc2ccc(O)cc2)C(=O)N(C)[C@@H](CC(=O)O)C(=O)N[C@@H](CC(N)=O)C(=O)N2CCC[C@H]2C(=O)N[C@@H](Cc2cnc[nH]2)C(=O)N[C@@H](CC(C)C)C(=O)N2CCC[C@H]2C(=O)N[C@@H](Cc2c[nH]c3ccccc23)C(=O)N[C@@H](CO)C(=O)N[C@@H](Cc2csc3ccccc23)C(=O)N1C` [Example 1190] ({CH2CO}-Y[NMeD]NPHLPWS[Bta][NMeNle][NMeNle]RCG-NH2; thioether N-14): the IC50 in experiment [1] (setting [3]) is > 30.5 nM; in experiment [2] (setting [4]), > 74.3 nM.

As for `CCCC[C@H]1C(=O)N(C)[C@@H](CCCC)C(=O)N[C@@H](CCCNC(=N)N)C(=O)N[C@H](C(=O)NCC(N)=O)CSCC(=O)N[C@@H](Cc2ccc(O)cc2)C(=O)N(C)[C@@H](CCC(=O)O)C(=O)N[C@@H](CC(N)=O)C(=O)N2CCC[C@H]2C(=O)N[C@@H](Cc2cnc[nH]2)C(=O)N[C@@H](CC(C)C)C(=O)N2CCC[C@H]2C(=O)N[C@@H](Cc2c[nH]c3ccccc23)C(=O)N[C@@H](CO)C(=O)N[C@@H](Cc2csc3ccccc23)C(=O)N1C` [Example 1191] ({CH2CO}-Y[NMeE]NPHLPWS[Bta][NMeNle][NMeNle]RCG-NH2; thioether N-14), the IC50 in experiment [1] (setting [3]) was > 30.5 nM; in experiment [2] (setting [4]) it was > 74.3 nM.

`CCCC[C@H]1C(=O)N(C)[C@@H](CCCC)C(=O)N[C@@H](CCCN)C(=O)N[C@H](C(=O)NCC(N)=O)CSCC(=O)N[C@@H](Cc2ccc(O)cc2)C(=O)N2C[C@H](N)C[C@H]2C(=O)N[C@@H](CC(N)=O)C(=O)N2CCC[C@H]2C(=O)N[C@@H](Cc2cnc[nH]2)C(=O)N[C@@H](CC(C)C)C(=O)N2C[C@H](O)C[C@H]2C(=O)N[C@@H](Cc2c[nH]c3ccccc23)C(=O)N[C@@H](CO)C(=O)N[C@@H](Cc2c[nH]c3ccccc23)C(=O)N1C` [Example 1192]: the IC50 stood at 6.74 nM in experiment [1] (read-out: HTRF IC50 value) and 21.5 nM in experiment [2] (read-out: CBA IC50 value).

Source of the values: patent publication US9850283B2, “Macrocyclic inhibitors of the PD-1/PD-L1 and CD80(B7-1)/PD-L1 protein/protein interactions” (BRISTOL-MYERS SQUIBB COMPANY, priority 2013, dated 2017).
